Earlier results as cited in US20170209579A1, “NON-INVASIVE RADIOFREQUENCY FIELD TREATMENT FOR CANCER THERAPY” (Baylor College of Medicine, priority 2014, published 2017).

Tested on: tumor
Settings: Monsky et al.; cited from earlier work

SMILES: COc1cccc2c1C(=O)c1c(O)c3c(c(O)c1C2=O)C[C@@](O)(C(=O)CO)C[C@@H]3O[C@H]1C[C@H](N)[C@H](O)[C@H](C)O1 [free doxorubicin]
- accumulation and retention in the tumor after conventional RFA: not
